Test results from US5859037A, “Sulfonylurea-glitazone combinations for diabetes” (Warner-Lambert Company, priority 1997, dated 1999).
Several values for one entry are separate records, joined by “and”; a condition that tells them apart may be missing. Identical values can stand only once. Entries after “also recorded” stand apart in the source; their conditions may differ.

Key:
Assay type in all cases: in vivo, patients
[1] = tested on: lipid parameters (markers of lipid metabolism); assay: Fasting serum lipid profile in 52-week clinical study; settings: for Apo A1, Change From Baseline, Mean / Apo B, Change From Baseline, Mean / Free Fatty Acids, Change From Baseline, Mean / Free Fatty Acids, Change From Baseline, Median / HDL Cholesterol, Change From Baseline, Mean / HDL Cholesterol, Change From Baseline, Median / LDL Cholesterol, Change From Baseline, Mean / LDL Cholesterol, Change From Baseline, Median / LP(a), Change From Baseline, Mean / Total Cholesterol, Change From Baseline, Mean / Total Cholesterol, Change From Baseline, Median / Triglycerides, Change From Baseline, Mean / Triglycerides, Change From Baseline, Median / VLDL Cholesterol, Change From Baseline, Mean / VLDL Cholesterol, Change From Baseline, Median: ITT, Week 52; for LDL adjusted mean increase, difference from glyburide / total cholesterol adjusted mean increase, difference from glyburide: Month 12
Procedure: After an initial screening visit, patients meeting the inclusion criteria entered a 4-week baseline phase (unblinded) in which they received 12 mg micronized glyburide (6 mg BID).
Secondary efficacy parameters included markers of glycemic homeostasis (insulin and C-peptide) and markers of lipid metabolism (total cholesterol, total triglycerides, HDL, VLDL, LDL (measured), free fatty acids, Lp(a), Apo A1, and Apo B).
Efficacy analysis was performed on 2 patient populations, intent-to-treat and completers. […] Patients withdrawing from the study before Week 52 were included in the analysis using the LOCF procedure; the last measurement on treatment was substituted for the missing Week 52 measurement. The intent-to-treat patient sample was the primary sample for assessing efficacy. Completers comprised patients in the intent-to-treat sample who completed Week 52.
Summary statistics for baseline, follow-up (post-randomization), and change from baseline in secondary efficacy parameters were computed by treatment group and visit. For each patient, the baseline measurements for insulin, C-peptide, blood pressure, total cholesterol, triglycerides, LDL, HDL, VLDL, and free fatty acids were defined as the measurement at Week 0. In order to reduce variability, the baseline Apo A, Apo B, and Lp(a) levels were defined as the average of the respective measurements at Weeks -1 and 1. Similarly, the end-of-treatment Apo A, Apo B, and Lp(a) measurements were defined as the average of the respective measurements at Weeks 48 and 52. Averages from Weeks 20 and 24 were not carried forward for these special lipid parameters.
Fasting serum lipid profiles were determined at baseline and periodically through Week 52. Apo A1, Apo B, and Lp(a) were determined only at baseline, Month 6, and Month 12 as part of a special laboratory panel.

[2] = Safety: adverse events and clinical laboratory measurements
Procedure: A complete physical examination and ECG were performed during screening and at the end of the study. Clinical laboratory parameters and vital signs including blood pressure were monitored throughout the study for safety reasons. Adverse events were recorded during clinic visits and evaluated by the investigator for intensity and relationship to study drug. Reduction in the daily dose of micronized glyburide could occur in cases of documented hypoglycemia.
All patients randomized to treatment were included in all safety evaluations.
Hypoglycemia, defined as an FSG <50 mg/dL (verified laboratory value), was to be recorded as an adverse event.
Adverse events that were treatment emergent (not present at baseline) are summarized in the following section using a modified COSTART dictionary. If, however, an adverse event present at baseline increased in intensity or frequency during treatment, the event was included in the summaries. Each patient reporting an adverse event was counted only once for that event regardless of the number of times the adverse event was reported. Associated adverse events were those considered by the investigator to be possibly, probably, or definitely related to study therapy.
Baseline clinical laboratory parameters were compared with values at the end of the study (last visit) to identify any abnormal trends. The percent of patients with increases or decreases in laboratory values were calculated based on the number of patients at risk for changes outside of the reference range; i.e., patients with low or high values at baseline were not considered at risk for a decrease or increase, respectively.
Laboratory results were then reviewed for these particular patients to determine which patients actually had clinically important changes in a given laboratory parameter.

[3] = Body weight in clinical study; settings: Month 12; for Body weight, Adjusted Mean Change From Baseline (SE): ITT
Text: This was a 12-month, double-blind, randomized, parallel-group, active-control, multicenter study design (FIG. 1). […] Patients were instructed to fast overnight prior to visits requiring specimen collection.

[4] = tested on: non-insulin dependent diabetes mellitus (NIDDM); assay: Patient disposition (withdrawal, completion)
Text: This was a 12-month, double-blind, randomized, parallel-group, active-control, multicenter study design (FIG. 1). […] Patients could withdraw voluntarily at any time during the study or be withdrawn by the investigator because of significant adverse events or deterioration in health, poor compliance, pregnancy, or prolonged symptomatic hyperglycemia or persistent worsening or failure to improve glycemic control as monitored by FSG.

[5] = tested on: total insulin and C-peptide; assay: Fasting total insulin and C-peptide in 52-week clinical study; settings: for C-Peptide, Adjusted Mean Change From Baseline (SE) / Total Insulin, Adjusted Mean Change From Baseline (SE) / C-Peptide, Adjusted Mean Difference From Glyburide / Total Insulin, Adjusted Mean Difference From Glyburide: ITT, Week 52; for C-Peptide, Adjusted Mean Difference From Glyburide / Total Insulin, Adjusted Mean Difference From Glyburide: *p ≤ 0.05
Procedure: This was a 12-month, double-blind, randomized, parallel-group, active-control, multicenter study design (FIG. 1). […] Secondary efficacy parameters included markers of glycemic homeostasis (insulin and C-peptide) and markers of lipid metabolism (total cholesterol, total triglycerides, HDL, VLDL, LDL (measured), free fatty acids, Lp(a), Apo A1, and Apo B). Efficacy analysis was performed on 2 patient populations, intent-to-treat and completers. […] Patients withdrawing from the study before Week 52 were included in the analysis using the LOCF procedure; the last measurement on treatment was substituted for the missing Week 52 measurement. The intent-to-treat patient sample was the primary sample for assessing efficacy. Completers comprised patients in the intent-to-treat sample who completed Week 52. The analysis of change from baseline to Week 52 was performed using analysis of covariance (ANCOVA). The primary model included effects due to treatment and center and baseline as covariate. Treatment-by-baseline and treatment-by-center interactions were also examined in supplemental models.

[6] = troglitazone 200 mg, or 200 mg/12 mg in combination
[7] = troglitazone 400 mg, or 400 mg/12 mg in combination
[8] = troglitazone 600 mg, or 600 mg/12 mg in combination
[9] = Week 52, compared with glyburide

SMILES: Cc1c(C)c2c(c(C)c1O)CCC(C)(COc1ccc(CC3SC(=O)NC3=O)cc1)O2 (stereo not drawn) [Troglitazone]
- HDL adjusted mean change, difference from glyburide ([1]; 600 mg troglitazone monotherapy, p<0.05): 4.9 mg/dL
- Apo A1, Change From Baseline, Mean [1, 6]: 1.9 mg/dL
- Apo B, Change From Baseline, Mean [1, 6]: 6.4 mg/dL
- Free Fatty Acids, Change From Baseline, Mean [1, 6]: -0.09 mEq/L
- Free Fatty Acids, Change From Baseline, Median [1, 6]: -0.04 mEq/L
- HDL Cholesterol, Change From Baseline, Mean [1, 6]: 0.86 mg/dL
- HDL Cholesterol, Change From Baseline, Median [1, 6]: 1.00 mg/dL
- LDL Cholesterol, Change From Baseline, Mean [1, 6]: 17.78 mg/dL
- LDL Cholesterol, Change From Baseline, Median [1, 6]: 20.50 mg/dL
- LP(a), Change From Baseline, Mean [1, 6]: 8.8 mg/dL
- Total Cholesterol, Change From Baseline, Mean [1, 6]: 19.96 mg/dL
- Total Cholesterol, Change From Baseline, Median [1, 6]: 21.00 mg/dL
- Triglycerides, Change From Baseline, Mean [1, 6]: -35.77 mg/dL
- Triglycerides, Change From Baseline, Median [1, 6]: 3.50 mg/dL
- VLDL Cholesterol, Change From Baseline, Mean [1, 6]: 3.54 mg/dL
- VLDL Cholesterol, Change From Baseline, Median [1, 6]: 3.50 mg/dL
- Apo A1, Change From Baseline, Mean [1, 7]: -1.5 mg/dL
- Apo B, Change From Baseline, Mean [1, 7]: 3.4 mg/dL
- Free Fatty Acids, Change From Baseline, Mean [1, 7]: -0.17 mEq/L
- Free Fatty Acids, Change From Baseline, Median [1, 7]: -0.12 mEq/L
- HDL Cholesterol, Change From Baseline, Mean [1, 7]: 2.99 mg/dL
- HDL Cholesterol, Change From Baseline, Median [1, 7]: 3.00 mg/dL
- LDL Cholesterol, Change From Baseline, Mean [1, 7]: 12.09 mg/dL
- LDL Cholesterol, Change From Baseline, Median [1, 7]: 11.00 mg/dL
- LP(a), Change From Baseline, Mean [1, 7]: 10.0 mg/dL
- Total Cholesterol, Change From Baseline, Mean [1, 7]: 24.78 mg/dL
- Total Cholesterol, Change From Baseline, Median [1, 7]: 20.00 mg/dL
- Triglycerides, Change From Baseline, Mean [1, 7]: -3.86 mg/dL
- Triglycerides, Change From Baseline, Median [1, 7]: -2.00 mg/dL
- VLDL Cholesterol, Change From Baseline, Mean [1, 7]: 8.48 mg/dL
- VLDL Cholesterol, Change From Baseline, Median [1, 7]: 3.00 mg/dL
- Apo A1, Change From Baseline, Mean [1, 8]: -1.9 mg/dL
- Apo B, Change From Baseline, Mean [1, 8]: 3.1 mg/dL
- Free Fatty Acids, Change From Baseline, Mean [1, 8]: -0.19 mEq/L
- Free Fatty Acids, Change From Baseline, Median [1, 8]: -0.11 mEq/L
- HDL Cholesterol, Change From Baseline, Mean [1, 8]: 4.53 mg/dL
- HDL Cholesterol, Change From Baseline, Median [1, 8]: 3.00 mg/dL
- LDL Cholesterol, Change From Baseline, Mean [1, 8]: 16.21 mg/dL
- LDL Cholesterol, Change From Baseline, Median [1, 8]: 15.00 mg/dL
- LP(a), Change From Baseline, Mean [1, 8]: 9.1 mg/dL
- Total Cholesterol, Change From Baseline, Mean [1, 8]: 25.88 mg/dL
- Total Cholesterol, Change From Baseline, Median [1, 8]: 20.50 mg/dL
- Triglycerides, Change From Baseline, Mean [1, 8]: -9.59 mg/dL
- Triglycerides, Change From Baseline, Median [1, 8]: -24.00 mg/dL
- VLDL Cholesterol, Change From Baseline, Mean [1, 8]: -0.36 mg/dL
- VLDL Cholesterol, Change From Baseline, Median [1, 8]: -3.00 mg/dL
- LDL adjusted mean increase, difference from glyburide ([1]; 200 mg, p<0.05): 23 mg/dL
- total cholesterol adjusted mean increase, difference from glyburide ([1]; 200 mg, p<0.05): 25 mg/dL
- total cholesterol adjusted mean increase, difference from glyburide ([1]; 400 mg, p<0.05): 26 mg/dL
- LDL adjusted mean increase, difference from glyburide ([1]; 600 mg, p<0.05): 19 mg/dL
- total cholesterol adjusted mean increase, difference from glyburide ([1]; 600 mg, p<0.05): 28 mg/dL
- atherogenic risk / lipid profile (result in words) ([1]; mono- or combination therapy): do not negatively impact atherogenic risk
- patients with mildly elevated liver enzymes (<3×upper normal limit) at end of study ([2]; 200 mg monotherapy): one
- adverse event profile versus glyburide monotherapy (result in words) ([2]; human, in vivo): Most adverse events occurred at the lower incidence in patients treated with troglitazone monotherapy compared with the patients treated with glyburide monotherapy
- hematological parameters (result in words) ([2]; human, in vivo): no patient experienced clinically important decreases in any hematological parameter that can be directly attributable to troglitazone
- patients with adverse events ([2]; overall, all doses): 70%
- patients with mildly transient decreases in hemoglobin/hematocrit which returned to baseline ([2]; remaining on drug, mono: two on 400 mg, one on 600 mg, combination: three on 400 mg/12 mg, one on 600 mg/12 mg): 3 patients
- tolerability (result in words) ([2]; throughout the study): well-tolerated throughout the study; also recorded: well-tolerated during the study
- Body weight, Adjusted Mean Change From Baseline (SE) ([3]; troglitazone 200 mg, or 200/12 mg in combination): -6.9 lbs
- Body weight, Adjusted Mean Change From Baseline (SE) ([3]; troglitazone 400 mg, or 400/12 mg in combination): -3.9 lbs
- Body weight, Adjusted Mean Change From Baseline (SE) ([3]; troglitazone 600 mg, or 600/12 mg in combination): -0.8 lbs
- mean decrease in body weight from baseline ([3]; monotherapy (troglitazone: range over doses)): 1 to 7 lbs
- withdrawal for lack of efficacy ([4]; 200 mg troglitazone): ~60% and 55%
- Withdrawn, Adverse Event, Number (%) of Patients [4, 6]: 6 (7.7) Number (%) of Patients
- Withdrawn, Lack of Efficacy, Number (%) of Patients [4, 6]: 43 (55.1) Number (%) of Patients
- Withdrawn, Adverse Event, Number (%) of Patients [4, 7]: 7 (8.6) Number (%) of Patients
- Withdrawn, Lack of Efficacy, Number (%) of Patients [4, 7]: 32 (39.5) Number (%) of Patients
- Withdrawn, Adverse Event, Number (%) of Patients [4, 8]: 6 (7.7) Number (%) of Patients
- Withdrawn, Lack of Efficacy, Number (%) of Patients [4, 8]: 34 (43.6) Number (%) of Patients
- C-Peptide, Adjusted Mean Change From Baseline (SE) [5, 6]: -0.96 (0.07) ng/mL
- Total Insulin, Adjusted Mean Change From Baseline (SE) [5, 6]: -8.41 (1.39) μIU/mL
- C-Peptide, Adjusted Mean Difference From Glyburide [5, 6]: 0.29 ng/mL
- Total Insulin, Adjusted Mean Difference From Glyburide [5, 6]: -6.96 μIU/mL
- C-Peptide, Adjusted Mean Change From Baseline (SE) [5, 7]: -0.78 (0.07) ng/mL
- Total Insulin, Adjusted Mean Change From Baseline (SE) [5, 7]: -5.90 (1.40) μIU/mL
- C-Peptide, Adjusted Mean Difference From Glyburide [5, 7]: -0.11 ng/mL
- Total Insulin, Adjusted Mean Difference From Glyburide [5, 7]: -4.44 μIU/mL
- C-Peptide, Adjusted Mean Change From Baseline (SE) [5, 8]: -1.01 (0.08) ng/mL
- Total Insulin, Adjusted Mean Change From Baseline (SE) [5, 8]: -11.53 (1.42) μIU/mL
- C-Peptide, Adjusted Mean Difference From Glyburide [5, 8]: 0.34 ng/mL
- Total Insulin, Adjusted Mean Difference From Glyburide [5, 8]: -10.07 μIU/mL
- C-peptide (result in words) [5, 9]: Significant (p≤0.05) decreases in C-peptide were observed for troglitazone monotherapy only (200 and 600 mg troglitazone)
- total insulin (result in words) [5, 9]: significant (p≤0.05) decrease in total insulin compared with glyburide
- total insulin, completers (result in words) ([5]; completers, 400 and 600 mg troglitazone, p<0.05 vs glyburide): decreases in total insulin that were significantly different from glyburide (p<0.05)
